The test system of one data set is human cancer cells. The settings on record: compared with TAXOL; cited from earlier work.

For the molecule `COC(=O)[C@H]1[C@@H](O)[C@@]2(O)c3c(OC)cc(O[C@@H]4O[C@@H]([C@H](O)CO)CO[C@H]4OC)cc3O[C@@]2(c2ccc(OC)cc2)[C@@H]1c1ccccc1` [silvestrol B, silvestrol], the cytotoxic activity result in the data set with human cancer cells is “comparable to the anticancer drug TAXOL®”.
For orientation: melting point means the temperature of the solid-liquid transition. Consider `COC(=O)C1C(c2ccccc2)[C@]2(c3ccc(OC)cc3)Oc3cc(OC)cc(OC)c3[C@@]1(O)C2=O` (some centres unmarked), for which the melting point was in the range of 83 to 85 °C.

The values above are taken from US8137509B2, “Asymmetric synthesis of rocaglamides via enantioselective photocycloaddition mediated by chiral brønsted acids” (Trustees of Boston University, priority 2006, dated 2012).
